US6352992B1, “Endothelin antagonist and beta receptor blocking agent as combined preparations” (Abbott Laboratories, priority 1997, dated 2002)

Tested on: normotensive awake dogs
Assay: Mean arterial blood pressure in normotensive awake dogs after oral administration
Assay type: in vivo, beagle dogs
Conditions: Compound A 10 mg/kg, bucindolol 0.1 mg/kg; for mean arterial blood pressure, change with respect to the initial value: combination 10 + 0.1 mg/kg, mean values
Description: In a crossover design, the test substance was administered orally as a capsule to chronically instrumented male beagle dogs (approx 14 kg). The capsule either contained nothing (control N=5), compound A (10 mg/kg, N=10), bucindolol (0.1 mg/kg; N=5) or the combination bucindolol + compound A (0.1+10 mg/kg; N=5). In between the individual administrations, a washing phase of at least one week was observed. The systolic and the diastolic blood pressure were measured using a Statham Transducer P 23 Db, from which the mean arterial blood pressure was calculated. The blood pressure was recorded for 6 h (MI^2, Modular Instrumente, USA).
Development of the mean arterial blood pressure (mmHg, change with respect to the initial value) in normotensive awake dogs after oral administration of different substances, what is shown are the mean values

CC(C)(Cc1c[nH]c2ccccc12)NCC(O)COc1ccccc1C#N (stereo not shown) [Bucindolol, bucindolol]
mean arterial blood pressure, change with respect to the initial value (1h after oral capsule): −0.8 mmHg | mean arterial blood pressure, change with respect to the initial value (2h after oral capsule): −3.8 mmHg | mean arterial blood pressure, change with respect to the initial value (3h after oral capsule): −3.4 mmHg | mean arterial blood pressure, change with respect to the initial value (4h after oral capsule): −3.8 mmHg | mean arterial blood pressure, change with respect to the initial value (5h after oral capsule): −3.8 mmHg | mean arterial blood pressure, change with respect to the initial value (6h after oral capsule): −1.4 mmHg | effect on blood pressure, in words (oral capsule, recorded for 6 h, combination 0.1+10 mg/kg): does not decrease
